From publication PMC6425606 (Journal for Immunotherapy of Cancer, 2019)
Where two headings read alike, the source gives them in different places. Blank lines part the entries; values can stand above or below the molecule they belong to.

What was measured:
untreated melanoma = settings: human, in vivo; cited from earlier work
metastatic melanoma = tested on: metastatic melanoma; parameters: method as in PMID 20525992, PMID 27622997, PMID 26027431; settings: ipilimumab monotherapy, previously treated patients; cited from earlier work
[1] = parameters: method as in PMID 28053021; settings: epacadostat monotherapy 300 mg BID, patients with advanced malignancies; cited from earlier work
[2] = Epacadostat plasma pharmacokinetics (LC-MS/MS, noncompartmental analysis); format: in vivo, human
Experimental: SAS® software, version 9.4 (SAS Institute Inc., Cary, NC) was used to generate all tables, graphs, and statistical analyses. […] Descriptive statistics were used to present summaries of continuous and categorical variables. Survival data (OS, PFS) were analyzed using the nonparametric Kaplan-Meier method.
Thirty-six patients were evaluable for pharmacokinetic analyses. […] Steady-state pharmacokinetic observations (Cycle 1, Day 10) are summarized in Additional file 1: Table S3.

[3] = epacadostat 25 mg BID (n=10), steady state Cycle 1 Day 10
[4] = epacadostat 50 mg BID continuous (n=13), steady state Cycle 1 Day 10
[5] = epacadostat 50 mg BID intermittent (n=7), steady state Cycle 1 Day 10
[6] = epacadostat 300 mg BID (n=6), steady state Cycle 1 Day 10

Molecule: ipilimumab: anti-CTLA-4 antibody, immune checkpoint inhibitor
- Patients with grade 3/4 treatment-emergent AEs (untreated melanoma): 56%
- Rate of irAEs (grade 3/4) (untreated melanoma): 19%
- Overall response rate (metastatic melanoma): 11%

- Increase of pharmacokinetic exposures (Cmax, AUC0–12h) with dose ([2]; between 25 mg BID and 300 mg BID): dose-proportional
- CL/F, geometric mean [2, 3]: 61.3 L/h
- CL/F, mean ± SD [2, 3]: 68.9 ± 32.1 L/h
- Cmin, mean ± SD [2, 3]: 0.03 ± 0.03 µM
- CL/F, geometric mean [2, 4]: 64.2 L/h
- CL/F, mean ± SD [2, 4]: 69.7 ± 29.8 L/h
- Cmin, mean ± SD [2, 4]: 0.06 ± 0.05 µM
- tmax, median [2, 4]: 2.0 h
- Cmax ([2]; epacadostat 50 mg BID continuous (n=13), steady state Cycle 1 Day 10, read-out: Cmax, geometric mean): 0.4 µM
- Cmax ([2]; epacadostat 50 mg BID continuous (n=13), steady state Cycle 1 Day 10, read-out: Cmax, mean ± SD): 0.5 ± 0.2 µM
- CL/F, geometric mean [2, 5]: 54.4 L/h
- CL/F, mean ± SD [2, 5]: 57.6 ± 21.7 L/h
- Cmin, mean ± SD [2, 5]: 0.06 ± 0.04 µM
- Cmax ([2]; epacadostat 50 mg BID intermittent (n=7), steady state Cycle 1 Day 10, read-out: Cmax, geometric mean): 0.5 µM
- CL/F, geometric mean [2, 6]: 74.8 L/h
- CL/F, mean ± SD [2, 6]: 77.6 ± 22.2 L/h
- Cmin, geometric mean [2, 6]: 0.2 µM
- Cmin, mean ± SD [2, 6]: 0.3 ± 0.2 µM
- AUC(0-t) ([2]; human, plasma, oral, 25 mg, epacadostat 25 mg BID (n=10), steady state Cycle 1 Day 10, read-out: AUC0–12h, geometric mean): 900 nM·h
- AUC(0-t) ([2]; human, plasma, oral, 25 mg, epacadostat 25 mg BID (n=10), steady state Cycle 1 Day 10, read-out: AUC0–12h, mean ± SD): 1100 ± 700 nM·h
- half-life ([2]; human, plasma, oral, 25 mg, epacadostat 25 mg BID (n=10), steady state Cycle 1 Day 10, read-out: t½, geometric mean (converted)): 7.4 h
- half-life ([2]; human, plasma, oral, 25 mg, epacadostat 25 mg BID (n=10), steady state Cycle 1 Day 10, read-out: t½, mean ± SD (converted)): 9.1 ± 6.1 h
- AUC(0-t) ([2]; human, plasma, oral, 50 mg, epacadostat 50 mg BID continuous (n=13), steady state Cycle 1 Day 10, read-out: AUC0–12h, geometric mean): 1800 nM·h
- AUC(0-t) ([2]; human, plasma, oral, 50 mg, epacadostat 50 mg BID continuous (n=13), steady state Cycle 1 Day 10, read-out: AUC0–12h, mean ± SD): 1900 ± 800 nM·h
- half-life ([2]; human, plasma, oral, 50 mg, epacadostat 50 mg BID continuous (n=13), steady state Cycle 1 Day 10, read-out: t½, geometric mean (converted)): 5.9 h
- half-life ([2]; human, plasma, oral, 50 mg, epacadostat 50 mg BID continuous (n=13), steady state Cycle 1 Day 10, read-out: t½, mean ± SD (converted)): 7.1 ± 5.5 h
- AUC(0-t) ([2]; human, plasma, oral, 50 mg, epacadostat 50 mg BID intermittent (n=7), steady state Cycle 1 Day 10, read-out: AUC0–12h, geometric mean): 2100 nM·h
- AUC(0-t) ([2]; human, plasma, oral, 50 mg, epacadostat 50 mg BID intermittent (n=7), steady state Cycle 1 Day 10, read-out: AUC0–12h, mean ± SD): 2200 ± 700 nM·h
- half-life ([2]; human, plasma, oral, 50 mg, epacadostat 50 mg BID intermittent (n=7), steady state Cycle 1 Day 10, read-out: t½, geometric mean (converted)): 4.5 h
- half-life ([2]; human, plasma, oral, 50 mg, epacadostat 50 mg BID intermittent (n=7), steady state Cycle 1 Day 10, read-out: t½, mean ± SD (converted)): 5.1 ± 2.9 h
- AUC(0-t) ([2]; human, plasma, oral, 300 mg, epacadostat 300 mg BID (n=6), steady state Cycle 1 Day 10, read-out: AUC0–12h, geometric mean): 9200 nM·h
- AUC(0-t) ([2]; human, plasma, oral, 300 mg, epacadostat 300 mg BID (n=6), steady state Cycle 1 Day 10, read-out: AUC0–12h, mean ± SD): 9500 ± 3000 nM·h
- half-life ([2]; human, plasma, oral, 300 mg, epacadostat 300 mg BID (n=6), steady state Cycle 1 Day 10, read-out: t½, geometric mean (converted)): 5.4 h
- half-life ([2]; human, plasma, oral, 300 mg, epacadostat 300 mg BID (n=6), steady state Cycle 1 Day 10, read-out: t½, mean ± SD (converted)): 6.2 ± 3.5 h
- half-life ([2]; human, plasma, po, repeat oral doses of 25 mg BID, 50 mg BID, 50 mg BID intermittent, 300 mg BID, read-out: Mean terminal elimination half-life (t½)): 5 to 9 h
- Tmax ([2]; human, plasma, repeat oral doses of 25 mg BID, 50 mg BID, 50 mg BID intermittent, 300 mg BID, read-out: Median time of maximum observed concentration (tmax)): ~2 h
Molecule: NS(=O)(=O)NCCNc1nonc1C(=NO)Nc1ccc(F)c(Br)c1 [epacadostat]
- Geometric mean AUC [1]: 9800 nM·h
